Measurements published in publication PMC5394417, “Investigating the molecular mechanism of positive and negative allosteric modulators in the calcium-sensing receptor dimer” (Scientific Reports, 2017).

Key:
HA-F684A CaSR mutant = biological target: T1, HA-F684A CaSR mutant (Rattus norvegicus, UniProt P48442, F684A); test: IP-One assay, HEK293T transiently transfected; assay type: cell-based
T1 construct: mGluR5 signal peptide (N); expressed in transfected cells; host or cells: HEK293T
T1 sequence (P48442 20-1079 F684A): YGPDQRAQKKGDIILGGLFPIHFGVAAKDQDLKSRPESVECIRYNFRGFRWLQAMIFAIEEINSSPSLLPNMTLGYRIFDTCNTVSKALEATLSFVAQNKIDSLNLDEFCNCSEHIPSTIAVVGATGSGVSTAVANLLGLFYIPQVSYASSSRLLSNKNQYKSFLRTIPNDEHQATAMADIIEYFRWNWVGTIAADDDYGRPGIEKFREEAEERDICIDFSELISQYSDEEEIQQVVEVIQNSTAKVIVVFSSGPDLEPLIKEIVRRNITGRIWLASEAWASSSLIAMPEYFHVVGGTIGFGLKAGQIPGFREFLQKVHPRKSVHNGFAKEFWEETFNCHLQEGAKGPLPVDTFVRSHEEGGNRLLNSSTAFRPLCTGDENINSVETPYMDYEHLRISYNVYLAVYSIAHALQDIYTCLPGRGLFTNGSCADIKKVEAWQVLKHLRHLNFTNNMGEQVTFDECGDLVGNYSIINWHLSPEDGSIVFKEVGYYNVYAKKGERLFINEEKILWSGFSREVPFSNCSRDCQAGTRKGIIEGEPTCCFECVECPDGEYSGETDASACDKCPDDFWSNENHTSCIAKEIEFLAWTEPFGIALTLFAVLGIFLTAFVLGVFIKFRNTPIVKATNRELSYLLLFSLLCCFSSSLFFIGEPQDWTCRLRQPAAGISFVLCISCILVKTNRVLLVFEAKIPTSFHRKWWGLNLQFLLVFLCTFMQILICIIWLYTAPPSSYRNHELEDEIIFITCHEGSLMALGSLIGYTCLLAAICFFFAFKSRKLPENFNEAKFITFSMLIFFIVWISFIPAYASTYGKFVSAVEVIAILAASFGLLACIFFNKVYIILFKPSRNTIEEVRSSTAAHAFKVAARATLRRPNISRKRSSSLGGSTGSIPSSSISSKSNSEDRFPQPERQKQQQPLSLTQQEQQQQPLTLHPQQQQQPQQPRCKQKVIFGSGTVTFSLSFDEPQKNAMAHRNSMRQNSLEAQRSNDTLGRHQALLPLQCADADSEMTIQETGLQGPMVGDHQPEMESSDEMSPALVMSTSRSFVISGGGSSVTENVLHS

myc-CaSR-F801A = biological target: T2, myc-CaSR-F801A (Rattus norvegicus, UniProt P48442, F801A); test: IP-One assay, co-expression with pEGFPN1 in HEK293T; assay type: cell-based; settings: concentrations up to 45 mM Ca^2+
T2 construct: mGluR5 signal peptide (N); expressed in transfected cells; host or cells: HEK293T
Protocol: Human embryonic kidney (HEK) 293T cells were cultured in DMEM supplemented with 10% dFBS and 1% P/S at 37 °C and 5% CO2. 48 h prior to assay, transient transfection was performed using Lipofectamine 2000 as the transfection reagent. White opaque 96-well culture plates (PerkinElmer, Waltham, MA, USA) were used for the ELISA and the TR-FRET dimerization assay, while clear tissue culture treated 96-well plates (Corning, Corning, NY, USA) were used for the IP-One assay. Both plate types were coated with poly-D-lysine before addition of cells and transfection mix. 0.25 μl/well of Lipofectamine 2000 were diluted in 25 μl/well of Opti-MEM and incubated at room temperature (RT) for 5 min. 0.03 μg/well of DNA was diluted in 25 μl/well of Opti-MEM, and subsequently mixed with the Lipofectamine 2000 dilution and incubated 20 min at RT before addition to the plates. […]
Functional activity was measured using the IP-One assay, which is an IP1 accumulation assay. […] The 384-well plate was incubated for 1 h at RT in dark before being measured on an EnVision plate reader (PerkinElmer, Waltham, MA, USA). Upon excitation at 340 nm, emission at 615 nm and 665 nm was measured, and the FRET ratio (665 nm/615 nm) was converted to IP1 concentrations by interpolating values from an IP1 standard curve generated from a provided IP1 calibrator (Cisbio Bioassays, Codolet, France). […]

T2 sequence (P48442 20-1079 F801A): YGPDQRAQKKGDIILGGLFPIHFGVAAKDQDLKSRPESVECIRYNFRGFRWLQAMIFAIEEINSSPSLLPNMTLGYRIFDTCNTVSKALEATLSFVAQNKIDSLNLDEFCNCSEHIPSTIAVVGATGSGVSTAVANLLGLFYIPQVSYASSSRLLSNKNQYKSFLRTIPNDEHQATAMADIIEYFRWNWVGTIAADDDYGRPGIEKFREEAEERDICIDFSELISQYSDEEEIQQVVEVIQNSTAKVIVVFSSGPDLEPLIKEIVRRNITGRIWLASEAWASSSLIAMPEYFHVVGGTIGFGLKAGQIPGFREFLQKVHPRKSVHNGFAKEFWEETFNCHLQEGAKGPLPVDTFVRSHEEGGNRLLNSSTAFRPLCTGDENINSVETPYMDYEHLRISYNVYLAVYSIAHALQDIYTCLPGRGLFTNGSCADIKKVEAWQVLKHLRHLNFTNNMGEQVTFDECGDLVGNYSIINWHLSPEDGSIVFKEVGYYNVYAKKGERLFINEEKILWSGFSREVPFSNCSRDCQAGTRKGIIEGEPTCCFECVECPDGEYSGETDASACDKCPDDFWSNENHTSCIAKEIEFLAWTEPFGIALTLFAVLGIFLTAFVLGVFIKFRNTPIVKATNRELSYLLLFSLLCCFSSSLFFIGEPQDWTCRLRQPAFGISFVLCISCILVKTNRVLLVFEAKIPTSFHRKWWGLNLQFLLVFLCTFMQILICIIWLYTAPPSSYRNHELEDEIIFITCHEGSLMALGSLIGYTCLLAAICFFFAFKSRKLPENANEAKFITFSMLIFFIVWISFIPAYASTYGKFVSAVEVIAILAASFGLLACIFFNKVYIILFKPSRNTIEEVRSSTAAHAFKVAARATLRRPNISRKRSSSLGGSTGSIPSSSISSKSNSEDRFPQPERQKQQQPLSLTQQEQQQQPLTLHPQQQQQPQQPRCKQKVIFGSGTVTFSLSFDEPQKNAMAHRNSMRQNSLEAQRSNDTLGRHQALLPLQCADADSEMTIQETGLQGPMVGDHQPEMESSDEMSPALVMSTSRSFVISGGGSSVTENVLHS

## [Ca+2] [Ca^2+]
HA-F684A CaSR mutant; Ca^2+ alone
  EC50: 6.6 mM
  pEC50 ± S.E.M.: 2.18 ± 0.01
HA-F684A CaSR mutant; Ca^2+ alone, normalized to maximum response of WT CaSR
  Max ± S.E.M.: 97 ± 3.4%
HA-F684A CaSR mutant; Ca^2+ with 1 μM NPS R-568
  EC50: 2.89 mM
  pEC50 ± S.E.M.: 2.54 ± 0.02
HA-F684A CaSR mutant; Ca^2+ with 1 μM NPS R-568, normalized to maximum response with Ca^2+ alone for the construct
  Max ± S.E.M.: 99 ± 11%
HA-F684A CaSR mutant; Ca^2+ with 5 μM NPS 2143
  EC50: 8.17 mM
  pEC50 ± S.E.M.: 2.09 ± 0.004
HA-F684A CaSR mutant; Ca^2+ with 5 μM NPS 2143, normalized to maximum response with Ca^2+ alone for the construct
  Max ± S.E.M.: 70 ± 8.1%
myc-CaSR-F801A
  functional response to Ca^2+: non-functional
